Measurements as given in patent US10975030B2, “Grp94 selective inhibitors and uses thereof” (University of Kansas, priority 2016, dated 2021).
Values joined by “and” are separate entries in the source; they are usually repeats but may differ in a detail not shown here. Identical values can stand only once.

Assays:
[1] = molecular target: Grp94 (recombinant cGrp94) (Canis lupus familiaris (Dog) (Canis familiaris), UniProt P41148); experiment: Fluorescence polarization (FP) assay, cGrp94 with FITC-GDA; type: binding; conditions: apparent Kd, cGrp94 and FITC-GDA, triplicates, ± SEM, read-out: Kd Grp94
Method: (§1) Fluorescence Polarization. Assay buffer (25 μL, 20 mM HEPES pH 7.3, 50 mM KCl, 5 mM MgCl2, 1 mM DTT, 20 mM Na2MoO4, 0.01% NP-40, and 0.5 mg/mL BGG) was added to 96-well plate (black well, black bottom) followed by the desired compound at the indicated final concentrations in DMSO (1% DMSO final concentration). […] Plates were incubated with rocking for 5 h at 4° C. […] Percent FITC-GDA bound was determined by using the DMSO millipolarization unit (mP) as the 100% bound value and the 0% for FITC-GDA. Kd values were calculated from separate experiments performed in triplicate using GraphPad Prism.

Hsp90α = Hsp90α (Homo sapiens (Human), UniProt P07900); experiment: Fluorescence polarization (FP) assay, Hsp90α; type: binding
Method: as §1

Chain of Grp94 (recombinant cGrp94) (P41148 22-804): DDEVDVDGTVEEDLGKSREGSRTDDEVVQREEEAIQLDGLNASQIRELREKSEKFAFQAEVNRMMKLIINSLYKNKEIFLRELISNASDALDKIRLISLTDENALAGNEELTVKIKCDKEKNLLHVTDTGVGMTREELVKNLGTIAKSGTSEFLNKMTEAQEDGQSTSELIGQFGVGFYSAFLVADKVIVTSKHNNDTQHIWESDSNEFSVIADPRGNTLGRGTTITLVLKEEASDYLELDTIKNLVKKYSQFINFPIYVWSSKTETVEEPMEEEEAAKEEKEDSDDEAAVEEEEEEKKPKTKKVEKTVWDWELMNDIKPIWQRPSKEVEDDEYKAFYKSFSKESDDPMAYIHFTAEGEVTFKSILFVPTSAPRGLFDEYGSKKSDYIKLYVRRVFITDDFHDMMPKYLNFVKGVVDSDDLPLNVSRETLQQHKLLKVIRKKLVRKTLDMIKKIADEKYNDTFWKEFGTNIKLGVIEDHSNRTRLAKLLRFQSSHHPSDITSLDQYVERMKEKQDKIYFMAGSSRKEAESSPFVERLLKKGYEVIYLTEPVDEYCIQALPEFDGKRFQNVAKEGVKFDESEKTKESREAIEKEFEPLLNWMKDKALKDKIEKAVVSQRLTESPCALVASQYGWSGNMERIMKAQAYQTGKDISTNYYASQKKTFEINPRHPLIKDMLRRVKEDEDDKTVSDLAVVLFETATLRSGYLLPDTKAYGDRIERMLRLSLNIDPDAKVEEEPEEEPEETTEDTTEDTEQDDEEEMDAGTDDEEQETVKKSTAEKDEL

NC(=O)c1ccc(-n2cccc2Cc2ccncc2)cc1N[C@H]1CC[C@H](O)CC1 [Compound 8q, 2-(((1r,4r)-4-hydroxycyclohexyl)amino)-4-(2-(pyridin-4-ylmethyl)-1H-pyrrol-1-yl)benzamide]
Kd [1]: 13.2 ± 0.12 µM | Kd (Hsp90α): > 100 µM

NC(=O)c1ccc(-n2cccc2Cc2ccccc2)cc1N[C@H]1CC[C@H](O)CC1 [Compound 8a, 4-(2-benzyl-1H-pyrrol-1-yl)-2-(((1r,4r)-4-hydroxycyclohexyl)amino)benzamide]
Kd [1]: ~1.3 µM and 1.13 µM | Kd (Hsp90α): > 100 µM

COc1ccccc1Cc1cccn1-c1ccc(C(N)=O)c(N[C@H]2CC[C@H](O)CC2)c1 [Compound 8m, 2-(((1r,4r)-4-hydroxycyclohexyl)amino)-4-(2-(2-methoxybenzyl)-1H-pyrrol-1-yl)benzamide]
Kd [1]: 1.15 µM | Kd (Hsp90α): > 100 µM

Cc1ccc(-c2cccn2-c2ccc(C(N)=O)c(N[C@H]3CC[C@H](O)CC3)c2)cc1 [Compound 5d, 2-(((1r,4r)-4-hydroxycyclohexyl)amino)-4-(2-(p-tolyl)-1H-pyrrol-1-yl)benzamide]
Kd [1]: 8.35 ± 0.14 µM | Kd (Hsp90α): > 100 µM

NC(=O)c1ccc(-n2cccc2Cc2ccc(Cl)cc2)cc1N[C@H]1CC[C@H](O)CC1 [Compound 8d, 4-(2-(4-chlorobenzyl)-1H-pyrrol-1-yl)-2-(((1r,4r)-4-hydroxycyclohexyl)amino)benzamide]
Kd [1]: > 25 µM | Kd (Hsp90α): > 100 µM

NC(=O)c1ccc(-n2cccc2-c2ccccc2Cl)cc1N[C@H]1CC[C@H](O)CC1 [Compound 5e, 4-(2-(2-chlorophenyl)-1H-pyrrol-1-yl)-2-(((1r,4r)-4-hydroxycyclohexyl)amino)benzamide]
Kd (Hsp90α): > 100 µM

NC(=O)c1ccc(-n2cccc2Cc2cccc(O)c2)cc1N[C@H]1CC[C@H](O)CC1 [Compound 8k, 4-(2-(3-hydroxybenzyl)-1H-pyrrol-1-yl)-2-(((1r,4r)-4-hydroxycyclohexyl)amino)benzamide]
Kd [1]: > 25 µM | Kd (Hsp90α): > 100 µM

NC(=O)c1ccc(-n2cccc2-c2ccc(Cl)cc2)cc1N[C@H]1CC[C@H](O)CC1 [Compound 5g, 4-(2-(4-chlorophenyl)-1H-pyrrol-1-yl)-2-(((1r,4r)-4-hydroxycyclohexyl)amino)benzamide]
Kd [1]: 10.6 ± 0.54 µM | Kd (Hsp90α): > 100 µM

NC(=O)c1ccc(-n2cccc2Cc2ccccn2)cc1N[C@H]1CC[C@H](O)CC1 [Compound 8o, 2-(((1r,4r)-4-hydroxycyclohexyl)amino)-4-(2-(pyridin-2-ylmethyl)-1H-pyrrol-1-yl)benzamide]
Kd [1]: 14 ± 0.27 µM | Kd (Hsp90α): > 100 µM

NC(=O)c1ccc(-n2cccc2Cc2c(F)cccc2F)cc1N[C@H]1CC[C@H](O)CC1 [Compound 8n, 4-(2-(2,6-difluorobenzyl)-1H-pyrrol-1-yl)-2-(((1r,4r)-4hydroxycyclohexyl)amino)benzamide]
Kd [1]: > 25 µM | Kd (Hsp90α): > 100 µM

NC(=O)c1ccc(-n2cccc2Cc2ccc(F)cc2)cc1N[C@H]1CC[C@H](O)CC1 [Compound 8g, 4-(2-(4-fluorobenzyl)-1H-pyrrol-1-yl)-2-(((1r,4r)-4-hydroxycyclohexyl)amino)benzamide]
Kd [1]: 8.35 ± 0.14 µM | Kd (Hsp90α): > 100 µM

NC(=O)c1ccc(-n2cccc2Cc2ccccc2Cl)cc1N[C@H]1CC[C@H](O)CC1 [Compound 8b, 4-(2-(2-chlorobenzyl)-1H-pyrrol-1-yl)-2-(((1r,4r)-4-hydroxycyclohexyl)amino)benzamide]
Kd [1]: 0.83 ± 0.12 µM | Kd (Hsp90α): > 100 µM

NC(=O)c1ccc(-n2cccc2-c2cccc(Cl)c2)cc1N[C@H]1CC[C@H](O)CC1 [Compound 5f, 4-(2-(3-chlorophenyl)-1H-pyrrol-1-yl)-2-(((1r,4r)-4-hydroxycyclohexyl)amino)benzamide]
Kd (Hsp90α): > 100 µM

NC(=O)c1ccc(-n2cccc2Cc2cccnc2)cc1N[C@H]1CC[C@H](O)CC1 [Compound 8p, 2-(((1r,4r)-4-hydroxycyclohexyl)amino)-4-(2-(pyridin-3-ylmethyl)-1H-pyrrol-1-yl) benzamide]
Kd [1]: 5.5 ± 0.15 µM | Kd (Hsp90α): > 100 µM

NC(=O)c1ccc(-n2cccc2Cc2cccc(Cl)c2)cc1N[C@H]1CC[C@H](O)CC1 [Compound 8c]
Kd [1]: 2.45 ± 0.45 µM | Kd (Hsp90α): > 100 µM

NC(=O)c1ccc(-n2cccc2CCc2ccccc2)cc1N[C@H]1CC[C@H](O)CC1 [Compound 9, 2-(((1r,4r)-4-hydroxycyclohexyl)amino)-4-(2-phenethyl-1H-pyrrol-1-yl)benzamide]
Kd [1]: > 25 µM | Kd (Hsp90α): > 100 µM

NC(=O)c1ccc(-n2cccc2Cc2ccc(O)cc2)cc1N[C@H]1CC[C@H](O)CC1 [Compound 8l, 4-(2-(4-hydroxybenzyl)-1H-pyrrol-1-yl)-2-(((1r,4r)-4-hydroxycyclohexyl)amino)benzamide]
Kd (Hsp90α): > 100 µM

Cc1ccccc1-c1cccn1-c1ccc(C(N)=O)c(N[C@H]2CC[C@H](O)CC2)c1 [Compound 5b, 2-(((1r,4r)-4-hydroxycyclohexyl)amino)-4-(2-(o-tolyl)-1H-pyrrol-1-yl)benzamide]
Kd [1]: 9.9 ± 0.54 µM | Kd (Hsp90α): > 100 µM

NC(=O)c1ccc(-n2cccc2-c2ccncc2)cc1N[C@H]1CC[C@H](O)CC1 [Compound 5j, 2-(((1r,4r)-4-hydroxycyclohexyl)amino)-4-(2-(pyridin-4-yl)-1H-pyrrol-1-yl)benzamide]
Kd [1]: 13.2 ± 0.12 µM | Kd (Hsp90α): > 100 µM

Cc1ccccc1Cc1cccn1-c1ccc(C(N)=O)c(N[C@H]2CC[C@H](O)CC2)c1 [Compound 8i, 2-(((1r,4r)-4-hydroxycyclohexyl)amino)-4-(2-(2-methylbenzyl)-1H-pyrrol-1-yl)benzamide]
Kd [1]: 4.2 ± 0.23 µM | Kd (Hsp90α): > 100 µM

NC(=O)c1ccc(-n2cccc2Cc2ccccc2Br)cc1N[C@H]1CC[C@H](O)CC1 [Compound 8h, 4-(2-(2-bromobenzyl)-1H-pyrrol-1-yl)-2-(((1r,4r)-4-hydroxycyclohexyl)amino)benzamide]
Kd [1]: 12.9 ± 0.11 µM | Kd (Hsp90α): > 100 µM

NC(=O)c1ccc(-n2cccc2-c2ccccn2)cc1N[C@H]1CC[C@H](O)CC1 [Compound 5h, 2-(((1r,4r)-4-hydroxycyclohexyl)amino)-4-(2-(pyridin-2-yl)-1H-pyrrol-1-yl)benzamide]
Kd [1]: 14 ± 0.27 µM | Kd (Hsp90α): > 100 µM

NC(=O)c1ccc(-n2cccc2Cc2cccc(F)c2)cc1N[C@H]1CC[C@H](O)CC1 [Compound 8f, 4-(2-(3-fluorobenzyl)-1H-pyrrol-1-yl)-2-(((1r,4r)-4-hydroxycyclohexyl)amino)benzamide]
Kd [1]: 4.53 ± 0.12 µM | Kd (Hsp90α): > 100 µM

NC(=O)c1ccc(-n2cccc2-c2ccccc2)cc1N[C@H]1CC[C@H](O)CC1 [Compound 5a, 2-(((1r,4r)-4-hydroxycyclohexyl)amino)-4-(2-phenyl-1H-pyrrol-1-yl)benzamide]
Kd [1]: ~9 µM and 9.05 µM | Kd (Hsp90α): > 100 µM

NC(=O)c1ccc(-n2cccc2-c2cccnc2)cc1N[C@H]1CC[C@H](O)CC1 [Compound 5i, 2-(((1r,4r)-4-hydroxycyclohexyl)amino)-4-(2-(pyridin-3-yl)-1H-pyrrol-1-yl)benzamide]
Kd [1]: 5.5 ± 0.15 µM | Kd (Hsp90α): > 100 µM

Cc1cccc(-c2cccn2-c2ccc(C(N)=O)c(N[C@H]3CC[C@H](O)CC3)c2)c1 [Compound 5c, 2-(((1r,4r)-4-hydroxycyclohexyl)amino)-4-(2-(m-tolyl)-1H-pyrrol-1-yl)benzamide]
Kd [1]: 9.43 ± 0.26 µM | Kd (Hsp90α): > 100 µM
